Data on 91 compounds can be found in a melting point compilation (Tetko et al.; mined from patent text by program, amines drawn as free bases though some values may be those of a salt).

A word on the melting point: it is the temperature of the solid-liquid transition.

The structures appear in SMILES notation. A value given as a limit tells only on which side of the number the result lay.

`CC1Cc2cc3c(cc2C(c2ccc([N+](=O)[O-])cc2)=NN1C(=O)C(C)(C)C)OCO3` (stereo unspecified): the melting point was 164 to 166 °C. Next, `CCN=C1SC2CCOc3ccc([N+](=O)[O-])cc3C2(O)N1CC` (stereo unspecified): 125 to 127 °C; `COC(=O)/C=C/c1ccc(OC)cc1N`: 149 °C.

For `CCOC(=O)CC(O)c1ccc([N+](=O)[O-])c(OC)c1` (stereo unspecified), the melting point was in the range of 54 to 56 °C. `CCN1CC(C(=O)N2CCOCC2)Cc2cccc(CSc3nc4ccccc4[nH]3)c21` (stereo unspecified): the melting point came out at 194 °C. The compound `O=S(=O)(CC=C1CCCCC1)c1ccccc1` showed a melting point of 70 °C. Take `Cn1cc(-c2ccccc2)c(=O)c(-c2cccc([N+](=O)[O-])c2)c1`: the melting point lay in the range of 135 to 136 °C. Compound `CCCc1c(OCCCCCC#N)ccc(C(=O)c2ccccc2O)c1O` returned a melting point of 62 to 63 °C. Regarding `COc1ccc([C@H]2NC(SC)=N[C@H]2c2ccc(OC)cc2)cc1`, the melting point lay in the range of 132 to 134 °C. With `COc1ccc([C@@H]2Sc3cc(Cc4ccc(F)cc4)ccc3N(CCN(C)C)C(=O)[C@@H]2OC(C)=O)cc1`, the melting point fell in the range of 154 to 156 °C. Take `COc1cc2c(cc1OC)C(C=NO)c1ccccc1CC2` (stereo unspecified): the melting point lay within 176 to 177 °C. As to `CC(C)c1ccc(N(Cc2ccc(O)cc2)C(=O)C2CCCc3ccccc32)cc1` (stereo unspecified), the melting point was determined as 156 °C. `CC1(N)CN(c2c(F)cc3c(=O)c(C(=O)O)cn(C4CC4)c3c2F)C1` came in with a melting point of 298 to 300 °C.

In the case of `Nc1ncnc2c1ncn2CC(/C=C/P(=O)(O)O)CO` (stereo unspecified), the melting point is more than 300 °C. Compound `COCCOc1cc(N(C)S(=O)(=O)c2cccs2)c2[nH]c(C3=NCC(CC(N)=O)S3)cc2c1` (stereo unspecified) returned a melting point of 189 to 190 °C.

The compound `O=C1CCc2cc3[nH]c(-c4ccncc4)nc3cc2N1` returned a melting point of 285 to 288 °C. As for `O=C1c2ccccc2C(=O)N1CC#Cc1ccc2c(c1)C(c1ccccc1F)=NCc1nnc(C(F)(F)F)n1-2`, the melting point was 204 to 206 °C. In the case of `Fc1ccc(OC(=S)Nc2ccc(-c3ncn(-c4ccc(OC(F)(F)F)cc4)n3)cc2)cc1`, the melting point was 164 to 169 °C. The compound `CC(=O)N1C(=O)NC(=O)CC1C` (stereo unspecified) had a melting point of 107 to 109 °C. In turn, `CNC(=S)NCC1CN(c2ccc(N3CCOCC3)c(F)c2)C(=O)O1` (stereo unspecified) came in with a melting point of 158 to 160 °C. Compound `CCOCc1nc2c(N)nc(C)c(C)c2n1CC(C)(C)O` yielded a melting point of 190 to 193 °C. In the case of `O=C(NCCO)/C(=C/c1ccc(OC(F)(F)F)cc1)NC(=O)c1ccc(Oc2ccc(Cl)cc2)cc1`, the melting point was in the range of 77 to 82 °C. In turn, `CCC(=O)OC1(C)CCCC2C3C=CC(C3)C21` (stereo unspecified) had a melting point of 30 °C.

`CCC1(CCOCCNC(=O)NC2CCCCC2)Nc2cnc(C)c(C)c2N1` (stereo unspecified) came in with a melting point of 187 to 189 °C. The compound `O=c1[nH]c2cc(Cl)ccc2cc1-c1ccc(O)cc1` registered a melting point of 262 °C. On to `Cc1nn(C)c2c(=O)n(-c3ccc(Cl)c(Cl)c3)cnc12`, for which the melting point is 250 to 251 °C. `CCCCC12CCC3C4=C(CCC3C1CCC2=O)CC(OC)=CC4` (stereo unspecified) displayed a melting point of 124 to 128 °C. The compound `COc1ccnc(C(=O)N[C@H]2COC[C@H](OCc3ccccc3)[C@@H](OCc3ccccc3)[C@H](C)OC2=O)c1O` had a melting point of 144 to 146 °C.

As for `CCCC1=C(C#N)C(c2cccc3ccccc23)c2c[nH]nc2N1` (stereo unspecified), the melting point came to 263 °C. Take `CSC1=NCCN1C(=O)c1cccnc1Cl`: the melting point is 100 to 102 °C. As for `Cc1cccc(-c2[nH]c(C(C)C)nc2-c2cccc(-c3ccc4c(c3)CCCS4=O)c2)n1` (stereo unspecified), the melting point lay within 136 to 139 °C. Next, `Cc1c2c(nn1Cc1ccccc1)c(N)nc1ccccc12`: more than 250 °C; `CC(=O)N1CCN(c2ccc(N)cc2)CC1`: 142 to 144 °C; `O=c1ccc(S(=O)(=O)c2cc3ccc(Cl)cc3[nH]2)n[nH]1`: more than 250 °C. For the compound `O=C(O)[C@H](CS)N(Sc1nc2cc(Cl)ccc2s1)C(=O)Cc1ccccc1`, the melting point is 155 to 158 °C. Next, `COc1ccc2cc(Cc3ccccc3)sc2c1`: 60 to 61 °C; `COc1cc(Nc2nccc(-c3nccs3)n2)cc(OC)c1OC`: 159 °C; `CCCCCCCCOc1ccc(O)c2ccccc12`: 73 to 74 °C. The compound `Cc1ccc2oc(C(O)[C@H](C)NC(=O)OCc3ccccc3)nc2c1` (stereo partly specified) displayed a melting point of 134 to 135 °C. Turning to `CN1CCN(c2cccc3c2C[C@H](NC(=O)c2ccc(C(F)(F)F)cc2)CC3)CC1`, the melting point fell in the range of 203 to 204 °C. As for `Nc1ccc(Br)c2ccn3c(=O)c(C(=O)O)cnc3c12`, the melting point lay in the range of 283 to 284 °C. Next, `Cc1nc2c(c(Cl)c1C(=O)NC(=N)N)CCCCC2`: 210 to 212 °C. The compound `Cn1c(C(F)(F)F)cc(=O)n(-c2cc(OCc3ccc(Cl)cc3Cl)c(Cl)cc2F)c1=O` yielded a melting point of 112 to 120 °C. The compound `Cn1cc(Br)nc(Nc2cccnc2)c1=O` registered a melting point of more than 250 °C. Next, `CC(C)C(=O)CCC(C)C1CCC2C3CC(O)C4CC(O)CCC4(C)C3CCC12C` (stereo unspecified): 180 to 181 °C. Turning to `Cc1c(-c2ccncc2)sc(-c2ccncc2)c1C=O`, the melting point lay in the range of 139 to 140 °C. With `O=C(CSc1ccccc1)c1ccccc1`, the melting point lay in the range of 51 to 52 °C. `NC(=O)/C=C1\CCc2c(F)cc(Cl)cc21` displayed a melting point of 171 to 173 °C.

With `CC1(C)CCC(C)(C)c2cc(-c3ccc(-c4ccccc4)c(-c4ccc(C(=O)O)cc4)c3)ccc21`, the melting point lay in the range of 233 to 235 °C. With `COc1nc2cc(Cl)cc(C#CCO)c2nc1OC`, the melting point was in the range of 137 to 140 °C.

Turning to `COc1ccc(S(=O)C(C(=O)NO)C(C)C)cc1` (stereo unspecified), the melting point came out at 163 °C.

Take `OCc1cc2ccc3ccccc3c2o1`: the melting point was 106 to 107 °C. In turn, `O=C(Nc1ccc(-n2nc(C3CC3)cc2C2CC2)c(F)c1)c1cccc(F)c1F` had a melting point of 132 to 135 °C. As for `CCOC(=O)c1c(O)c(Br)c(Br)n1Cc1ccccc1`, the figure is 107 to 108 °C; as for `c1ccc(Nc2ncc3cc4ccccc4n3n2)cc1`, 188 to 193 °C. As to `COC(=O)CN(c1cc(OCc2ccccc2)cc2ccc(OC)cc12)S(N)(=O)=O`, the melting point is 137 to 139 °C.

In the case of `O=C(CCCO)c1ccc(CCNS(=O)(=O)c2ccccc2)cc1`, the melting point fell in the range of 89 to 90 °C. `O=c1oc2ccc(F)cc2c(CBr)c1Br` had a melting point of 125 to 127 °C. The compound `C=C(Nc1nc(-c2ccccc2)c(-c2nc3ccccc3c(=O)n2-c2ccc(Cl)cc2)s1)c1ccco1` gave a melting point of 270 to 274 °C. Next, `COC(c1nnco1)c1ccccc1COc1ccc(Cl)cc1C` (stereo unspecified): 68 to 70 °C; `Cc1ccc(S(=O)(=O)OCC2Cc3cccc(-c4ccc(C(F)(F)F)cc4)c3O2)cc1` (stereo unspecified): 116 to 118 °C; `CCCCNc1c(C(=O)OCC)c(C)nc2c1ncn2C`: 62 to 63 °C. Next, `CC(c1ccccc1)N1CCN(c2nn(C)c3c2Cc2ccccc2-3)CC1` (stereo unspecified): 138 to 139 °C; `O=C1NC(=S)CCC1N1Cc2c(cccc2[N+](=O)[O-])C1=S` (stereo unspecified): 248 to 250 °C; `CCn1ccc(C2(c3cccc(-c4cncnc4)c3)N=C(N)N(C)C2=O)c1` (stereo unspecified): 100 to 102 °C.

`COc1ccc(CNc2nc(OCc3ccccn3)ncc2C(=O)c2cc(OC)c(OC)c(OC)c2)cc1Cl` yielded a melting point of 129 °C. The compound `OCCNC(=S)NC1CCc2ccccc2C1` (stereo unspecified) returned a melting point of 89 to 91 °C.

Compound `COc1ccc(S(=O)(=O)C2(C(=O)NO)CCN(Cc3ccc(Br)cc3)CC2)cc1` came in with a melting point of 180 °C. Next, `CNC(=O)C(SC)c1cc(Cl)cc(C(=O)c2ccccc2)c1N` (stereo unspecified): 170 to 171 °C; `CC(=O)Oc1ccccc1C(=O)Oc1cccc(CO)c1`: 77 to 79 °C; `NC(=O)Nc1cccc2c1nc(/C=C/c1ccccc1)n2-c1ccccn1`: more than 230 °C.

With `O=C(O)CCSCC(=O)c1ccc2[nH]c(=O)[nH]c2c1`, the melting point lay within 212 to 215 °C. Next, `CC1(C)CC2(CC(c3ccc(F)cc3)=C1/C=C/[C@H]1C[C@H](O)CC(=O)O1)OCCO2` (relative stereo): 142 to 144 °C; `O=C(OC[C@H]1CC(=O)[C@@H]1COC(=O)c1ccccc1)c1ccccc1`: 93 to 94 °C. In turn, `N#CCNc1nc(N2CCc3ccccc3CC2)c(C#N)c(=O)[nH]1` returned a melting point of more than 200 °C. Compound `CCCn1c(=O)c2[nH]c(/C=C/c3ccc(OCOC)c(OC)c3)nc2n(CCC)c1=O` gave a melting point of 227 °C. In turn, `COC(=O)c1cc2c(cnn2C)nc1C(=O)OC` displayed a melting point of 148 to 149 °C.

The compound `N#CCc1cn2cccc(OCc3ccccc3)c2n1` registered a melting point of 148 to 150 °C. The compound `Cc1ccc(S(=O)(=O)NC(=O)CC(=O)O)cc1` displayed a melting point of 80 °C. As to `C=C(CCC(=O)O)CC(N)C(=O)O` (stereo unspecified), the melting point came out at 68 °C. `CC(C)(C)c1ccc(C2=NC[C@@H](O)[C@H](c3ccccc3)O2)cc1` (racemic) showed a melting point of 50 °C. On to `O=C(Nc1cccc(Cl)c1)NC1CC(C2CCCCC2)c2ccccc2NC1=O` (stereo unspecified), for which the melting point lay in the range of 222 to 225 °C.

`Cc1nccn1-c1nc(Cl)c(-c2ccccc2)c2ccccc12` displayed a melting point of 167 to 168 °C. For the compound `c1ccc(-c2nc3cc(COc4ccc(CCCn5ccnc5)cc4)ccc3o2)cc1`, the melting point lay in the range of 137 to 138 °C. `CCCCCCCCCCOC(=O)N[C@H]1CCCNC(=O)C1` returned a melting point of 40 to 41 °C.

As for `CCCCCCS(=O)(=O)c1c(O)cc(C)oc1=O`, the melting point fell in the range of 65 to 66 °C. `CN(C[C@H]1CC[C@H](c2nc3ccccc3n2C)CC1)C(=O)OCc1ccccc1` returned a melting point of 141 to 142 °C. Compound `CC(C)N(CCO)c1nc(Nc2cccc(NS(C)(=O)=O)c2)nc2[nH]ccc12` came in with a melting point of 129 to 132 °C. For the compound `Cn1ncc(C(=O)N2CCC2)c1C(=O)Nc1ccn2nc(-c3cccnc3)nc2c1`, the melting point fell in the range of 253 to 254 °C. `CCCCCCC(C)Nc1ccc2c(c1)CCN2c1ncnc2cc(OC)c(OC)cc12` (stereo unspecified): the melting point fell in the range of 61 to 63 °C.

`CCOc1ccc2[nH]c(SCc3cccn4ccnc34)nc2c1` had a melting point of 157 to 160 °C.
